Laboratory results: patent US12358935B2, “Targeting redox-active pyridinium cations to mitochondria to inhibit proliferation of drug-resistant cancer cells” (The Medical College of Wisconsin, Inc., priority 2018, dated 2025)
“Also recorded” adds a separate entry of the source. Where two headings read alike, the source gives them in different places.

Key:
FC1242 PDAC tumor = assay: Syngraft mouse model, tumor growth; type: in vivo; details: 0.2 mg per injection, three times per week, 9 days of treatment, FC1242 syngraft in mice
Excerpt: (§1) FIG. 20. In vivo effects of Mito-NPH on the FC1242 PDAC tumor growth in mice. (A) Tumor growth curves; (B) tumor wet weight after 9 days of treatment; and (C) LC-MS/MS traces of Mito-NP, Mito-NPH, and their metabolites: hydroxylamine (Mito-HAP) and amine (Mito-AP) derivatives extracted from tumor. n=5 per group, *p<0.05
(§2) We treated pancreatic cancer cells with Mito-NP or Mito-NPH and the intracellular levels of both oxidized, redox-cycling capable Mito-NP, and its cell membrane-permeable reduced precursor, Mito-NPH, were measured using LC-MS/MS. […] The dynamics of inhibition of mitochondrial respiration by Mito-NPH and Mito-NP was used to follow the compounds' uptake rates. […] The increased intracellular level of Mito-NP upon treatment with Mito-NPH also translated into 2-fold stronger stimulation of intracellular O2.^− production, as measured by monitoring O2.^−-specific product of hydroethidine oxidation, 2-OH-E^+ (FIG. 18C). […] Next, we tested the effects of Mito-NPH on MiaPaCa2 cell proliferation and survival. […] 5. Syngraft mouse model. We have established a preliminary syngraft model using mouse FC1242 PDAC cell line. […] Tumor size was measured using calipers and by weighing the tumor tissues at the completion of the study. […] The tumor tissues were analyzed for the level of Mito-NP and Mito-NPH 24 h after the last injection of Mito-NPH.

MiaPaCa2 cells [1] = assay: Inhibition of pancreatic cancer cell growth; type: cell-based, human
Description: (§3) FIG. 12. (A) Antiproliferative potency of Mito-NP against different pancreatic cancer cells. (B) Comparison of the antiproliferative effects of Mito-NP, with its untargeted analogs (10 μM each).
FIG. 19. Antiproliferative (A) and cytotoxic (B) potency of Mito-NP vs. Mito-NPH. MiaPaCa2 cells were incubated with the compounds for 5 days and cells counted (A) or for 24 h, followed by labeling with Sytox Green dead cell fluorescent stain (B).
(§4) 1. Antiproliferative and cytotoxic effects in pancreatic cancer cells. […] To determine the cytotoxic potency of Mito-NP, we used Sytox Green fluorescent marker, which accumulates in dead cells and increases its fluorescence yield upon binding DNA.
We treated pancreatic cancer cells with Mito-NP or Mito-NPH and the intracellular levels of both oxidized, redox-cycling capable Mito-NP, and its cell membrane-permeable reduced precursor, Mito-NPH, were measured using LC-MS/MS. […] The increased intracellular level of Mito-NP upon treatment with Mito-NPH also translated into 2-fold stronger stimulation of intracellular O2.^− production, as measured by monitoring O2.^−-specific product of hydroethidine oxidation, 2-OH-E^+ (FIG. 18C). […] Tumor size was measured using calipers and by weighing the tumor tissues at the completion of the study. […] The tumor tissues were analyzed for the level of Mito-NP and Mito-NPH 24 h after the last injection of Mito-NPH.

MiaPaCa2 cells [2] = type: cell-based
Description: (§5) FIG. 13. […] Cells were stained with Sytox Green dye after 48-h treatment with the compounds to label dead cells.
FIG. 19. […] MiaPaCa2 cells were incubated with the compounds for 5 days and cells counted (A) or for 24 h, followed by labeling with Sytox Green dead cell fluorescent stain (B).
as §4
We treated pancreatic cancer cells with Mito-NP or Mito-NPH and the intracellular levels of both oxidized, redox-cycling capable Mito-NP, and its cell membrane-permeable reduced precursor, Mito-NPH, were measured using LC-MS/MS. […] The dynamics of inhibition of mitochondrial respiration by Mito-NPH and Mito-NP was used to follow the compounds' uptake rates. […] Next, we tested the effects of Mito-NPH on MiaPaCa2 cell proliferation and survival. […] 5. Syngraft mouse model. We have established a preliminary syngraft model using mouse FC1242 PDAC cell line. […] Tumor size was measured using calipers and by weighing the tumor tissues at the completion of the study. […] The tumor tissues were analyzed for the level of Mito-NP and Mito-NPH 24 h after the last injection of Mito-NPH.

MiaPaCa2 cells [3] = assay: Cellular oxidants, HE probe with HPLC profiling; type: cell-based, human; details: 10 μM
Description: FIG. 14. Stimulation of cellular oxidants by Mito-NP in pancreatic cancer cells. Profiles of HE oxidation products in MiaPaCa2 cells treated with Mito-NP (10 μM, 4 h).
(§6) FIG. 18. (A) Intracellular level of Mito-NP and Mito-NPH. (B) Dynamics of inhibition of mitochondrial respiration by Mito-NP and Mito-NPH. (C) Intracellular generation. 10 μM Mito-NP or Mito-NPH was used.
2.1. Generation of O2.^− and other oxidants. […] We have confirmed the mitochondrial localization of O2.^− production using Mito-SOX (Mito-HE-C6) probe with HPLC-based detection of, 2-OH-Mito-E^+, the O2.^−-specific oxidation product of MitoSOX (not shown).
(§7) We treated pancreatic cancer cells with Mito-NP or Mito-NPH and the intracellular levels of both oxidized, redox-cycling capable Mito-NP, and its cell membrane-permeable reduced precursor, Mito-NPH, were measured using LC-MS/MS. […] The dynamics of inhibition of mitochondrial respiration by Mito-NPH and Mito-NP was used to follow the compounds' uptake rates. […] The increased intracellular level of Mito-NP upon treatment with Mito-NPH also translated into 2-fold stronger stimulation of intracellular O2.^− production, as measured by monitoring O2.^−-specific product of hydroethidine oxidation, 2-OH-E^+ (FIG. 18C). […] Next, we tested the effects of Mito-NPH on MiaPaCa2 cell proliferation and survival. […] 5. Syngraft mouse model. We have established a preliminary syngraft model using mouse FC1242 PDAC cell line. After the tumor has been established and detectable by palpation (seven days after injection of tumor cells), Mito-NPH (0.2 mg per injection) was administered three times per week. Tumor size was measured using calipers and by weighing the tumor tissues at the completion of the study. […] The tumor tissues were analyzed for the level of Mito-NP and Mito-NPH 24 h after the last injection of Mito-NPH.

[4] = Tumor tissue compound levels, LC-MS/MS; type: in vivo, mouse; details: 24 h after the last injection of Mito-NPH
Excerpt: as §1, §2

MiaPaCa2 cells [5] = assay: Bioenergetic function, Seahorse XF96 flux analyzer; type: cell-based, human
Description: FIG. 16. Inhibition of mitochondrial respiration by Mito-NP in MiaPaCa2 cells. (A) Mito-NP injected during the measurements. (B) Cells pretreated with Mito-NP for 24 h. (C) Effect of Mito-NP concentration on ATP-linked respiration rate after 1 h and 24 h incubation. (D) Effect of Mito-NP concentration on glycolytic and mitochondrial ATP production rates after 24-h incubation.
as §6
Immediately (1 h) after injection, a high concentration of Mito-NP (100 μM) was needed to block ATP-linked respiration (FIG. 16A,C). […] One of the hallmarks of cancer cells is their flexibility in using different energetic substrates to sustain growth in the presence of metabolism-targeted drugs.
as §7

LS513 colon cancer cells [6] = assay: Superoxide production, hydroethidine (HE) assay with HPLC of 2-OH-E+; type: cell-based, human; details: 50 μM, 1 h pre-incubation then 1 h HE probe
Description: FIGS. 5A-5B. Stimulation of intracellular superoxide of Mito-Py. LS513 colon cancer cells were pre-incubated for 1 h with 50 μM Mito-Py followed by 1-h incubation with the HE probe. 2-OH-E^+ is a specific product of the reaction of the probe with superoxide. (A) Effect of the substituent on the pyridinium ring. (B) Effect of the alkyl linker length in Mito-NP.
Induction of superoxide production by mitochondria-targeted pyridinium cations.

mitochondrial Prx3 [7] = assay: Redox blotting of peroxiredoxin 3; type: cell-based, human; details: 10 μM, 1 h, LS513 cells
Description: FIG. 6. Effect of Mito-NP-C10 (10 μM, 1 h) on the redox status of cytosolic (Prx1) and mitochondrial (Prx3) peroxiredoxins. **p<0.01
Intracellular localization of redox stress. To understand the fate of superoxide induced by Mito-NP-C10 and determine the localization of the redox cycling process, we performed redox blotting of peroxiredoxin isoforms 1 and 3 (Prx1 and Prx3).

LS513 cells [8] = assay: Cell proliferation, IncuCyte cell confluence; type: cell-based, human; details: for IC50: estimated from concentration dependence
Description: FIG. 8. Effect of Mito-Py compounds (10 μM) on the proliferation of LS513 cells. (A) Effect of the substituent on the pyridinium ring. (B) Effect of the alkyl linker length in Mito-NP.
FIG. 9. Effect of concentration of Mito-NP-C8 and Mito-NP-C10 on the LS513 cell confluence. Dashed lines correspond to 50% cell confluence.
Antiproliferative effects of mitochondria-targeted pyridinium cations. To test if the mitochondrial redox stress induced by Mito-Py compounds would translate into inhibition of cancer cell proliferation, we compared the effects of Mito-Py of different redox potential and different alkyl linker length on proliferation of LS513 cells. We used the IncuCyte™ Live-Cell Imaging Analyzer that provides real-time cell confluence data (FIG. 8).

LS513 cells [9] = assay: Cell death, Sytox Green; type: cell-based, human; details: prolonged (>24 h) incubation
LS513 colon cancer cells [10] = assay: Oxygen consumption rate / mitochondrial respiration; type: cell-based, human
Description: FIG. 7. Effect of Mito-NP-C10 (0-100 μM) on the rates of oxygen consumption (OCR) by LS513 colon cancer cells, and on the cell response to mitochondrial stressors: oligomycin (ATP synthase inhibitor), dinitrophenol (DNP, mitochondrial uncoupler) and antimycin A (mitochondrial complex III inhibitor).
Induction of bioenergetic stress. To test the effect of Mito-NP-C10 on the bioenergetic function of LS513 cells, we monitored the mitochondrial respiration in response to acute addition of the compound at different doses (FIG. 7).

FC1242 cells = assay: Inhibition of pancreatic cancer cell growth; type: cell-based, mouse
Description: as §3, §4

Panc1 cells = assay: Inhibition of pancreatic cancer cell growth; type: cell-based, human
Description: as §3, §4

cytosolic Prx1 = assay: Redox status of peroxiredoxin 1; type: cell-based, human; details: MiaPaCa2 cells
Excerpt: (§8) FIG. 15. Effect of Mito-NP on the redox status of cytosolic (Prx1) and mitochondrial (Prx3) peroxiredoxins in MiaPaCa2 cells. *p<0.05, ***p<0.001.
(§9) 2.2. Prx oxidation. Increased production of O2.^− results in elevated H2O2 flux. We tested the effect of Mito-NP on the redox status of cytosolic (Prx1) and mitochondrial (Prx3) peroxiredoxins (FIG. 15A).

mitochondrial Prx3 [11] = assay: Redox status of peroxiredoxin 3; type: cell-based, human; details: MiaPaCa2 cells
Excerpt: as §8, §9

[12] = test system: HPNE non-tumorigenic pancreatic duct cell line; assay: Cytotoxicity, Sytox Green dead cell stain; type: cell-based, human; details: HPNE non-cancer cells, 48-h treatment
Excerpt: as §5, §4

## O=[N+]([O-])C1=CN(CCCCCCCCCC[P+](c2ccccc2)(c2ccccc2)c2ccccc2)C=CC1 [Mito-NPH]
FC1242 PDAC tumor
  tumor growth (size, wet weight): inhibition of the tumor growth
MiaPaCa2 cells [1]; 5 days incubation, read-out: IC50 (antiproliferative, cell count)
  IC50: 1200 ± 100 nM
MiaPaCa2 cells [2]; 24 h
  cytotoxic potency (Sytox Green) vs Mito-NP: significantly stronger cytotoxic agent
MiaPaCa2 cells [3]
  stimulation of intracellular O2.- production (2-OH-E+) vs Mito-NP: 2 fold
[4]
  compound level in tumor tissues: detected both Mito-NP and Mito-NPH
MiaPaCa2 cells [5]; 10 μM
  dynamics of inhibition of mitochondrial respiration vs Mito-NP: More efficient inhibition of mitochondrial respiration

## O=[N+]([O-])c1ccc[n+](CCCCCCCCCC[P+](c2ccccc2)(c2ccccc2)c2ccccc2)c1 [Mito-NP-C10]
LS513 colon cancer cells [6]
  superoxide production (2-OH-E+): most potent inducer of superoxide production
Mitochondrial Prx3 [7]
  oxidation of mitochondrial Prx3: induces significant oxidation of mitochondrial Prx3
LS513 cells [8]
  IC50: 6000 nM
LS513 cells [9]
  cell death (Sytox Green): results in cell death
LS513 colon cancer cells [10]; 0-100 μM
  response to mitochondrial stressors (oligomycin, DNP, antimycin A): a loss in response to oligomycin
LS513 colon cancer cells [10]; 0-100 μM, acute addition
  mitochondrial respiration rates (OCR): time- and concentration-dependent inhibition in mitochondrial respiration rates
LS513 colon cancer cells [10]; 30 and 100 μM
  antimycin A-independent oxygen consumption: increased the rates of antimycin A-independent oxygen consumption

## O=[N+]([O-])c1ccc[n+](CCCCCCCC[P+](c2ccccc2)(c2ccccc2)c2ccccc2)c1 [Mito-NP-C8]
LS513 colon cancer cells [6]
  superoxide production (2-OH-E+): stimulated superoxide production
LS513 cells [8]
  IC50: 13000 nM
LS513 cells [9]
  cell death (Sytox Green): results in cell death

## O=[N+]([O-])c1ccc[n+](CCCCCCCCCC[P+](c2ccccc2)(c2ccccc2)c2ccccc2)c1 [Mito-NP]
MiaPaCa2 cells [1]; read-out: IC50 (cell growth)
  IC50: 2700 ± 200 nM
MiaPaCa2 cells [2]; 48-h treatment
  cell death (Sytox Green): dose-dependently induced death of MiaPaCa2 cells; also recorded: significantly stronger inducer of MiaPaCa2 cell death than Mito-Met
MiaPaCa2 cells [3]; 4 h
  O2.- production (2-OH-E+): significant increase
  other HE oxidation products: An increased level of other oxidation products
FC1242 cells
  IC50: 3100 ± 100 nM
Panc1 cells
  IC50: 2800 ± 300 nM
Cytosolic Prx1
  oxidation of cytosolic Prx1: only modest effect on cytosolic Prx1
Mitochondrial Prx3 [11]
  oxidation of mitochondrial Prx3: strong oxidation of mitochondrial Prx3
LS513 cells [8]; 10 μM
  cell proliferation (confluence): blocked the proliferation of colon cancer cells
MiaPaCa2 cells [5]
  mitochondrial respiration: time- and concentration-dependent inhibition of mitochondrial respiration
MiaPaCa2 cells [5]; 10 μM, 24-h incubation
  ATP-linked respiration: complete inhibition of ATP-linked respiration
MiaPaCa2 cells [5]; 24-h incubation
  rate of mitochondrial ATP production: decrease in the rate of mitochondrial ATP production
MiaPaCa2 cells [5]; 1 h after injection
  concentration needed to block ATP-linked respiration: 100 µM
MiaPaCa2 cells [5]; concentrations higher than 10 μM, 24-h incubation
  glycolytic ATP production: decreased at higher concentrations
MiaPaCa2 cells [5]; concentrations up to 10 μM, 24-h incubation
  glycolytic ATP production: remained unchanged
[12]
  cell death (Sytox Green): No induction of cell death
